Like-named read-outs stand apart in the source and are kept apart here.
Key:
HCV genotype 1b replicon = test: HCV replicon assay, genotype 1b replicon EC50; format: cell-based, Hepatitis C virus; conditions: Hepatitis C virus, HCV replicon, genotype 1b, read-out: EC50 [gt-1b]
Procedure, shortened: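 Cells harbouring a stable replicon are grown under G418 selection, then plated with test compound in G418-free medium for 24-48 hours. After washing and lysis, RNA or luciferase signal is measured and expressed as percent of DMSO control to give EC50.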

[1] = target: HCV NS3/4A protease genotype 1b (Hepatitis C virus genotype 1b, UniProt P26663); test: HCV NS3/4A protease time-resolved fluorescence (TRF) assay, Ki against genotype 1b; format: biochemical; conditions: IC50 [gt-1b], NS3/4A protease TRF assay, genotype 1b enzyme 0.2 nM
Procedure, shortened: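 Ki values come from IC50 fits corrected for substrate concentration and KM. The time-resolved fluorescence protease reaction used 25 nM peptide substrate, 2.5 h, room temperature, pH 7.5 HEPES buffer, after 30 min enzyme–inhibitor preincubation.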

Chain of HCV NS3/4A protease genotype 1b (P26663 1027-1657): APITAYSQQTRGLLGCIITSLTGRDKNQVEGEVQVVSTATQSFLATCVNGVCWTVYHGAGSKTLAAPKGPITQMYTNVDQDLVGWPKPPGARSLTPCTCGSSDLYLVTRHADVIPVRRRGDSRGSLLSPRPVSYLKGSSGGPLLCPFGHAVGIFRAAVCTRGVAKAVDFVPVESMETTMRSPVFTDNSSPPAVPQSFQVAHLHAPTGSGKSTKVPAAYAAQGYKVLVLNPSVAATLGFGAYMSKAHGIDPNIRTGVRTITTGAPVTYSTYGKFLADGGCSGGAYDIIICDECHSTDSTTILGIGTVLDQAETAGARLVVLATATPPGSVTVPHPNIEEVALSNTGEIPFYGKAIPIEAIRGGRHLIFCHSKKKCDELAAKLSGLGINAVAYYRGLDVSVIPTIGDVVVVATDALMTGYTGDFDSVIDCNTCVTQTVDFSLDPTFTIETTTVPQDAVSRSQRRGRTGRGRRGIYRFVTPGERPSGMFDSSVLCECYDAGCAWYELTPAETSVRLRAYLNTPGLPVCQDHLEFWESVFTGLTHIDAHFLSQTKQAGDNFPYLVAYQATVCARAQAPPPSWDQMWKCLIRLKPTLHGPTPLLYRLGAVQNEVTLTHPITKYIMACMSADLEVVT
Chain of HCV NS3/4A protease genotype 1b (P26663 1658-1711): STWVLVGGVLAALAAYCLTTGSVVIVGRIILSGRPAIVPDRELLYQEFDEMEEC

Structure (SMILES) | EC50 (HCV genotype 1b replicon) | IC50 [1] | EC50 (HCV genotype 1b replicon; K+ salt) | IC50 ([1]; K+ salt)
Cc1ccc2nc(C(F)(F)F)c3c(c2c1)CC[C@]1(C[C@H]2C(=O)N[C@]4(C(=O)NS(=O)(=O)C5(C)CC5)C[C@H]4/C=C\CCCCC[C@H](NC(=O)OCCN4CCCCC4)C(=O)N2C1)O3 [Example 417, 2-(piperidin-1-yl)ethyl [(2R,6S,12Z,13aS,14aR,16aS)-9′-methyl-14a-{[(1-methylcyclopropyl)sulfonyl]carbamoyl}-5,16-dioxo-5′-(trifluoromethyl)-1,1′,2′,5,6,7,8,9,10,11,13a,14,14a,15,16,16a-hexadecahydrospiro[cyclopropa[e]pyrrolo[1,2-a][1,4]diazacyclopentadecine-2,3′-pyrano[2,3-c]quinolin]-6-yl]carbamate] | 45.3 nM | 0.094 nM |  | 
Cc1nc2ccc(OCCN3CCOCC3)cc2c2c1O[C@]1(CC2)C[C@H]2C(=O)N[C@]3(C(=O)NS(=O)(=O)C4(C)CC4)C[C@H]3/C=C\CCCCC[C@H](NC(=O)OC(C)(C)C)C(=O)N2C1 [Example 418, tert-butyl {(2R,6S,12Z,13aS,14aR,16aS)-5′-methyl-14a-{[(1-methylcyclopropyl)sulfonyl]carbamoyl}-9′-[2-(morpholin-4-yl)ethoxy]-5,16-dioxo-1,1′,2′,5,6,7,8,9,10,11,13a,14,14a,15,16,16a-hexadecahydrospiro[cyclopropa[e]pyrrolo[1,2-a][1,4]diazacyclopentadecine-2,3′-pyrano[2,3-c]quinolin]-6-yl}carbamate] | 6.24 nM | 0.008 nM |  | 
COc1ccc2nc(C(C)C)c3c(c2c1)[C@H](F)C[C@]1(C[C@H]2C(=O)N[C@]4(C(=O)NS(=O)(=O)C5(C)CC5)C[C@H]4/C=C\CCCCC[C@H](NC(=O)O[C@@H](C)C(C)C)C(=O)N2C1)O3 [Example 419, (2S)-3-methylbutan-2-yl [(1′R,2S,6S,12Z,13aS,14aR,16aS)-1′-fluoro-9′-methoxy-14a-{[(1-methylcyclopropyl)sulfonyl]carbamoyl}-5,16-dioxo-5′-(propan-2-yl)-1,1′,2′,5,6,7,8,9,10,11,13a,14,14a,15,16,16a-hexadecahydrospiro[cyclopropa[e]pyrrolo[1,2-a][1,4]diazacyclopentadecine-2,3′-pyrano[2,3-c]quinolin]-6-yl]carbamate] |  |  | 1.75 nM | 0.038 nM
CC[C@@H](C)OC(=O)N[C@H]1CCCCC/C=C\[C@@H]2C[C@@]2(C(=O)NS(=O)(=O)C2(C)CC2)NC(=O)[C@@H]2C[C@]3(CCc4c(c(C5CC5)nc5ccc(OC)cc45)O3)CN2C1=O [Example 420, (2R)-butan-2-yl [(2R,6S,12Z,13aS,14aR,16aS)-5′-cyclopropyl-9′-methoxy-14a-{[(1-methylcyclopropyl)sulfonyl]carbamoyl}-5,16-dioxo-1,1′,2′,5,6,7,8,9,10,11,13a,14,14a,15,16,16a-hexadecahydrospiro[cyclopropa[e]pyrrolo[1,2-a][1,4]diazacyclopentadecine-2,3′-pyrano[2,3-c]quinolin]-6-yl]carbamate] |  |  | 1.25 nM | 0.011 nM
CC[C@H](C)OC(=O)N[C@H]1CCCCC/C=C\[C@@H]2C[C@@]2(C(=O)NS(=O)(=O)C2(C)CC2)NC(=O)[C@@H]2C[C@]3(CCc4c(c(C5CC5)nc5ccc(OC)cc45)O3)CN2C1=O [Example 421, (2S)-butan-2-yl [(2R,6S,12Z,13aS,14aR,16aS)-5′-cyclopropyl-9′-methoxy-14a-{[(1-methylcyclopropyl)sulfonyl]carbamoyl}-5,16-dioxo-1,1′,2′,5,6,7,8,9,10,11,13a,14,14a,15,16,16a-hexadecahydrospiro[cyclopropa[e]pyrrolo[1,2-a][1,4]diazacyclopentadecine-2,3′-pyrano[2,3-c]quinolin]-6-yl]carbamate] | 1.72 nM | 0.024 nM |  | 
COc1ccc2nc(C(F)(F)F)c3c(c2c1)CC[C@]1(C[C@H]2C(=O)N[C@]4(C(=O)NS(=O)(=O)C5(C)CC5)C[C@H]4/C=C\CCCCC[C@H](NC(=O)OC4(C)COC4)C(=O)N2C1)O3 [Example 422, 3-methyloxetan-3-yl [(2R,6S,12Z,13aS,14aR,16aS)-9′-methoxy-14a-{[(1-methylcyclopropyl)sulfonyl]carbamoyl}-5,16-dioxo-5′-(trifluoromethyl)-1,1′,2′,5,6,7,8,9,10,11,13a,14,14a,15,16,16a-hexadecahydrospiro[cyclopropa[e]pyrrolo[1,2-a][1,4]diazacyclopentadecine-2,3′-pyrano[2,3-c]quinolin]-6-yl]carbamate] |  |  | 3.14 nM | 0.008 nM
Cc1ccc2nc(C(F)(F)F)c3c(c2c1)CC[C@]1(C[C@H]2C(=O)N[C@]4(C(=O)NS(=O)(=O)C5(C)CC5)C[C@H]4/C=C\CCCCC[C@H](NC(=O)OCCCN4CCCCC4)C(=O)N2C1)O3 [Example 423, 3-(piperidin-1-yl)propyl [(2R,6S,12Z,13aS,14aR,16aS)-9′-methyl-14a-{[(1-methylcyclopropyl)sulfonyl]carbamoyl}-5,16-dioxo-5′-(trifluoromethyl)-1,1′,2′,5,6,7,8,9,10,11,13a,14,14a,15,16,16a-hexadecahydrospiro[cyclopropa[e]pyrrolo[1,2-a][1,4]diazacyclopentadecine-2,3′-pyrano[2,3-c]quinolin]-6-yl]carbamate] | 19 nM | 0.048 nM |  | 
Cc1ccc2nc(C(F)(F)F)c3c(c2c1)CC[C@]1(C[C@H]2C(=O)N[C@]4(C(=O)NS(=O)(=O)C5(C)CC5)C[C@H]4/C=C\CCCCC[C@H](NC(=O)OCCCN4CCOCC4)C(=O)N2C1)O3 [Example 424, 3-(morpholin-4-yl)propyl [(2R,6S,12Z,13aS,14aR,16aS)-9′-methyl-14a-{[(1-methylcyclopropyl)sulfonyl]carbamoyl}-5,16-dioxo-5′-(trifluoromethyl)-1,1′,2′,5,6,7,8,9,10,11,13a,14,14a,15,16,16a-hexadecahydrospiro[cyclopropa[e]pyrrolo[1,2-a][1,4]diazacyclopentadecine-2,3′-pyrano[2,3-c]quinolin]-6-yl]carbamate] | 15.1 nM | 0.033 nM |  | 
Cc1nc2ccc(OCCN3CCOCC3)cc2c2c1O[C@]1(CC2)C[C@H]2C(=O)N[C@]3(C(=O)NS(=O)(=O)C4(C)CC4)C[C@H]3/C=C\CCCCC[C@H](NC(=O)OCC(C)(C)C)C(=O)N2C1 [Example 425, 2,2-dimethylpropyl {(2R,6S,12Z,13aS,14aR,16aS)-5′-methyl-14a-{[(1-methylcyclopropyl)sulfonyl]carbamoyl}-9′-[2-(morpholin-4-yl)ethoxy]-5,16-dioxo-1,1′,2′,5,6,7,8,9,10,11,13a,14,14a,15,16,16a-hexadecahydrospiro[cyclopropa[e]pyrrolo[1,2-a][1,4]diazacyclopentadecine-2,3′-pyrano[2,3-c]quinolin]-6-yl}carbamate] | 3.29 nM | 0.024 nM |  | 
COc1ccc2nc(C(F)(F)F)c3c(c2c1)[C@@H](F)C[C@]1(C[C@H]2C(=O)N[C@]4(C(=O)NS(=O)(=O)C5(C)CC5)C[C@H]4/C=C\CCCCC[C@H](NC(=O)OC(C)(C)C)C(=O)N2C1)O3 [Example 426, tert-butyl [(l′S,2S,6S,12Z,13aS,14aR,16aS)-1′-fluoro-9′-methoxy-14a-{[(1-methylcyclopropyl)sulfonyl]carbamoyl}-5,16-dioxo-5′-(trifluoromethyl)-1,1′,2′,5,6,7,8,9,10,11,13a,14,14a,15,16,16a-hexadecahydrospiro[cyclopropa[e]pyrrolo[1,2-a][1,4]diazacyclopentadecine-2,3′-pyrano[2,3-c]quinolin]-6-yl]carbamate] | 21.4 nM | 0.603 nM |  | 
COc1ccc2nc(C(F)(F)F)c3c(c2c1)[C@H](F)C[C@]1(C[C@H]2C(=O)N[C@]4(C(=O)NS(=O)(=O)C5(C)CC5)C[C@H]4/C=C\CCCCC[C@H](NC(=O)OC(C)(C)C)C(=O)N2C1)O3 [Example 427, tert-butyl [(l′R,2S,6S,12Z,13aS,14aR,16aS)-1′-fluoro-9′-methoxy-14a-{[(1-methylcyclopropyl)sulfonyl]carbamoyl}-5,16-dioxo-5′-(trifluoromethyl)-1,1′,2′,5,6,7,8,9,10,11,13a,14,14a,15,16,16a-hexadecahydrospiro[cyclopropa[e]pyrrolo[1,2-a][1,4]diazacyclopentadecine-2,3′-pyrano[2,3-c]quinolin]-6-yl]carbamate] | 1.46 nM | 0.015 nM |  | 
COc1ccc2nc(C3CC3)c3c(c2c1)[C@H](F)C[C@]1(C[C@H]2C(=O)N[C@]4(C(=O)NS(=O)(=O)C5(C)CC5)C[C@H]4/C=C\CCCCC[C@H](NC(=O)OC(C)(C)C)C(=O)N2C1)O3 [Example 428, tert-butyl [(l′R,2S,6S,12Z,13aS,14aR,16aS)-5′-cyclopropyl-1′-fluoro-9′-methoxy-14a-{[(1-methylcyclopropyl)sulfonyl]carbamoyl}-5,16-dioxo-1,1′,2′,5,6,7,8,9,10,11,13a,14,14a,15,16,16a-hexadecahydrospiro[cyclopropa[e]pyrrolo[1,2-a][1,4]diazacyclopentadecine-2,3′-pyrano[2,3-c]quinolin]-6-yl]carbamate] | 2.21 nM | 0.02 nM |  | 
COc1ccc2nc(C)c3c(c2c1)CC[C@]1(C[C@H]2C(=O)N[C@]4(C(=O)NS(=O)(=O)C5(C)CC5)C[C@H]4/C=C\CCCCC[C@H](Nc4ncccc4C)C(=O)N2C1)O3 [Example 429, (2R,6S,12Z,13aS,14aR,16aS)-9′-methoxy-5′-methyl-N-[(1-methylcyclopropyl)sulfonyl]-6-[(3-methylpyridin-2-yl)amino]-5,16-dioxo-1,1′,2′,6,7,8,9,10,11,13a,14,15,16,16a-tetradecahydrospiro[cyclopropa[e]pyrrolo[1,2-a][1,4]diazacyclopentadecine-2,3′-pyrano[2,3-c]quinoline]-14a(5H)-carboxamide] | 4.28 nM | 0.194 nM |  | 
